“Also recorded” adds a separate entry of the source.

Chain of PRMT8 (Q9NR22 whole entry, species assumed): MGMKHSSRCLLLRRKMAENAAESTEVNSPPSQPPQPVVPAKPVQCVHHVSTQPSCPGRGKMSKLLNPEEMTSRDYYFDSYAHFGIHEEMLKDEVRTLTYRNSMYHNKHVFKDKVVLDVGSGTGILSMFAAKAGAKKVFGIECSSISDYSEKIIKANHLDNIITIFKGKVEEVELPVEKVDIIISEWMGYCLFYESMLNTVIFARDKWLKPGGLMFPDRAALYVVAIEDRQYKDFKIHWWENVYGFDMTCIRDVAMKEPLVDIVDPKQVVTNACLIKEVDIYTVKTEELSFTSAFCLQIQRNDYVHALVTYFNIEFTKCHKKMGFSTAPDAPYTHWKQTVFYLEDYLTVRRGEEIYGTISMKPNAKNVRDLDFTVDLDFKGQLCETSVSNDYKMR
Chain of PRMT3 (O60678 211-531): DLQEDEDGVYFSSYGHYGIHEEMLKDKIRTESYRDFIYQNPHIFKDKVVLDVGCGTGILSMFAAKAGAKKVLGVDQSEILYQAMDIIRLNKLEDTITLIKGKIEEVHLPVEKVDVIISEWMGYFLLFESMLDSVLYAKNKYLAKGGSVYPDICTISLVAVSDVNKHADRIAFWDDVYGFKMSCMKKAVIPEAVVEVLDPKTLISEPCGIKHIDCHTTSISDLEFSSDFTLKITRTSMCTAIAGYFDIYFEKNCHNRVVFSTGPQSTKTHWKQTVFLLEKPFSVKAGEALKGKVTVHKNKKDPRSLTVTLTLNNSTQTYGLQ

In the first experiment the target is T1, PRMT1 (Homo sapiens, UniProt Q99873).
T1 construct: made in house
T1 sequence (Q99873 whole entry, species assumed): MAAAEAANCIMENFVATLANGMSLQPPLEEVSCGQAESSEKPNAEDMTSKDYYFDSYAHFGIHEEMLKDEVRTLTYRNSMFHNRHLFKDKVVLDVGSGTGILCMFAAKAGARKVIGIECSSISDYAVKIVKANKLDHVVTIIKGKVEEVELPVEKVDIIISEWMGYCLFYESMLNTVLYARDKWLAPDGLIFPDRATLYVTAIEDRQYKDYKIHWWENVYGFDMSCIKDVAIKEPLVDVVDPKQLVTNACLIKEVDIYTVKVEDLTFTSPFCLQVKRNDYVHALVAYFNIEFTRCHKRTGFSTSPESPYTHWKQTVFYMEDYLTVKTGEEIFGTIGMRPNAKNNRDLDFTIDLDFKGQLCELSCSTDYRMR
Put plainly: SAHH-coupled fluorescence assay, inhibition of PRMT1.
Details: not given
Type of experiment: biochemical. The method, then: (§1) A fluorescence-based SAHH-coupled assay was applied to study the inhibition activity of all synthesized compounds on PRMT 1 and 3.
(§2) The PRMT1 methylation assay was performed under the following conditions in a final well volume of 100 μL: 2.5 mM HEPES (pH=7.0), 25 mM NaCl, 25 μM EDTA, 50 μM TCEP, 0.01% Triton X-100, 5 μM SAHH, 0.1 μM PRMT1, 10 μM AdoMet, and 10 μM ThioGlo4. […] The fluorescence signal was monitored on a BMG CLARIOstar microplate reader with excitation at 400 nm and emission at 465 nm for 15 min. Data were processed using GraphPad Prism software 8.0.
(§3) Next, the inhibition activity of the library was investigated for five PRMT members from type I PRMTs.
as §2, with “A fluorescence-based SAHH-coupled assay was applied to determine the inhibition activity of all synthesized compounds on PRMT 1 and 3. The PRMT1” for “The PRMT1”, “software 8.0. All experiments were performed in duplicate.” for “software 8.0.”
For `Nc1ncnc2c1ncn2[C@@H]1O[C@H](CSCCCNCc2cccc(-c3cccc(F)c3)c2)[C@@H](O)[C@H]1O` [Compound 10q], the inhibition at 10 µM turned out to be 63%.

On to `Nc1ncnc2c1ncn2[C@@H]1O[C@H](CSCCNCc2cccc(-c3ccc(Cl)cc3)c2)[C@@H](O)[C@H]1O` [Compound 10a], for which the inhibition at 10 µM was found to be 16%.

For the compound `Nc1ncnc2c1ncn2[C@@H]1O[C@H](CSCCOc2ccc(-c3ccccc3O)cc2)[C@@H](O)[C@H]1O` [Compound 14g], the inhibition at 10 µM was 5%.

In the case of `Nc1ncnc2c1ncn2[C@@H]1O[C@H](CSCCOc2ccc(-c3ccc(O)cc3)cc2)[C@@H](O)[C@H]1O` [Compound 14b], the inhibition at 10 µM was found to be 8%.

For the compound `Nc1ncnc2c1ncn2[C@@H]1O[C@H](CSCCCNC(=O)NCc2ccc3c(c2)OCO3)[C@@H](O)[C@H]1O` [Compound 7o], the inhibition at 10 µM is 5%.

`Nc1ncnc2c1ncn2[C@@H]1O[C@H](CSCCNC(=O)NCc2ccc3cnccc3c2)[C@@H](O)[C@H]1O` [Compound 7e]: the inhibition at 10 µM worked out at 6%.

On to `Nc1ncnc2c1ncn2[C@@H]1O[C@H](CSCCOc2ccc(-c3ccoc3)cc2)[C@@H](O)[C@H]1O` [Compound 14c], for which the inhibition at 10 µM turned out to be 3%.

For the compound `N=C(NCCCSCC1CC(n2ccc3c(NCCCc4ccccc4)ncnc32)C(O)C1O)Nc1cccc(Br)c1` (stereo not shown) [YD1375], the “PRMT1 inhibition” value is “inhibitory effect of YD1375 on PRMT1”.

`N=C(NCCSC[C@H]1O[C@@H](n2cnc3c(N)ncnc32)[C@H](O)[C@@H]1O)Nc1ccccc1` [Compound 5b]: the inhibition at 10 µM stood at 73%.

Consider `Nc1ncnc2c1ncn2[C@@H]1O[C@H](CSCCNCc2cccc(Br)c2)[C@@H](O)[C@H]1O` [Compound 9a], for which the inhibition at 10 µM came out at 11%.

The experiment is the same for the next values; noted with them: read-out: IC50[μM] | PRMT1.
For the compound `N=C(NCCSC[C@H]1O[C@@H](n2cnc3c(N)ncnc32)[C@H](O)[C@@H]1O)Nc1ccccc1` [Compound 5b], the IC50 amounted to 3 ± 0.16 µM.

The target in a further experiment is T2, PRMT4 (Homo sapiens, UniProt Q86X55).
T2 sequence (Q86X55 1-608): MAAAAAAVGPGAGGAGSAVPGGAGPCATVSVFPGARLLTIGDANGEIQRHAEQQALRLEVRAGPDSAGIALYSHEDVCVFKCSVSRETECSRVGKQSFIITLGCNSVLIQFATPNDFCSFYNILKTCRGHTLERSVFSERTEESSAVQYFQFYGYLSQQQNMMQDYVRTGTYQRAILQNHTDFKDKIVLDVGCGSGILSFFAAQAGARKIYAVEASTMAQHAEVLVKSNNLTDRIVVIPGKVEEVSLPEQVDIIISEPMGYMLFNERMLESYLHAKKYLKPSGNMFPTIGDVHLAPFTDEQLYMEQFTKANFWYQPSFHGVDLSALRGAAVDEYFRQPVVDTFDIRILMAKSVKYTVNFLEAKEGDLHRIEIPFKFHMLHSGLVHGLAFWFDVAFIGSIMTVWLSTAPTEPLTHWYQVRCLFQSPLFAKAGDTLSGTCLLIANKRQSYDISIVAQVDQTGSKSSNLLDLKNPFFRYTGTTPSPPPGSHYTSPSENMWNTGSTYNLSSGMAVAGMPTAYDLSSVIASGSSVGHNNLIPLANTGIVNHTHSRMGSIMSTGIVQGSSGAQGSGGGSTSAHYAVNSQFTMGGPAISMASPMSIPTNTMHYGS
Kind of experiment: radioactive assay (Reaction Biology Corp.), inhibition of PRMT4. Format: biochemical.
Details: not given
As for the experimental part: as §3
(§4) The PRMT 4, 6 and 8 methylation assays were performed by Reaction Biology corp.
As for `Nc1ncnc2c1ncn2[C@@H]1O[C@H](CSCCCNCc2cccc(-c3cccc(F)c3)c2)[C@@H](O)[C@H]1O` [Compound 10q], the inhibition at 10 µM stood at 97%.

On to `Nc1ncnc2c1ncn2[C@@H]1O[C@H](CSCCNCc2cccc(-c3ccc(Cl)cc3)c2)[C@@H](O)[C@H]1O` [Compound 10a], for which the “PRMT4 inhibition” value was “equal potency on PRMT4; also recorded: more potent PRMT4 inhibition activity than SGC8158” and the inhibition at 10 µM amounted to 99%.

Regarding `Nc1ncnc2c1ncn2[C@@H]1O[C@H](CSCCOc2ccc(-c3ccccc3O)cc2)[C@@H](O)[C@H]1O` [Compound 14g], the inhibition at 10 µM is 35%.

As for `Nc1ncnc2c1ncn2[C@@H]1O[C@H](CSCCOc2ccc(-c3ccc(O)cc3)cc2)[C@@H](O)[C@H]1O` [Compound 14b], the inhibition at 10 µM came out at 13%.

Consider `Nc1ncnc2c1ncn2[C@@H]1O[C@H](CSCCCNC(=O)NCc2ccc3c(c2)OCO3)[C@@H](O)[C@H]1O` [Compound 7o], for which the inhibition at 10 µM was 42%.

For the compound `Nc1ncnc2c1ncn2[C@@H]1O[C@H](CSCCNC(=O)NCc2ccc3cnccc3c2)[C@@H](O)[C@H]1O` [Compound 7e], the inhibition at 10 µM was 30%.

In the case of `Nc1ncnc2c1ncn2[C@@H]1O[C@H](CSCCOc2ccc(-c3ccoc3)cc2)[C@@H](O)[C@H]1O` [Compound 14c], the inhibition at 10 µM came out at 17%.

For the compound `N=C(NCCCN(CCNC(=O)NCc1ccccc1)C[C@H]1O[C@@H](n2cnc3c(N)ncnc32)[C@H](O)[C@@H]1O)NC1CCCC1` [YD1289], the “PRMT4 inhibition” value was “selective and potent PRMT4 inhibitor”.

Take `Nc1ncnc2c1ncn2[C@@H]1O[C@H](CN(CCCNCc2cccc(Br)c2)CCNC(=O)NCc2ccccc2)[C@@H](O)[C@H]1O` [YD1349]: the “PRMT4 inhibition” value is “potent and selective PRMT4 inhibitors”.

For `Nc1ncnc2c1ncn2[C@@H]1O[C@H](CN(CCCNCc2cccc(-c3ccc(Cl)cc3)c2)CCNC(=O)NCc2ccccc2)[C@@H](O)[C@H]1O` [YD1305], the “PRMT4 inhibition” value was “potent and selective PRMT4 inhibitors”.

Another experiment deals with PRMT6 (Homo sapiens, UniProt Q96LA8). Put plainly: radioactive assay (Reaction Biology Corp.), inhibition of PRMT6. Type of experiment: biochemical.
Chain of PRMT6 (Q96LA8 whole entry, species assumed): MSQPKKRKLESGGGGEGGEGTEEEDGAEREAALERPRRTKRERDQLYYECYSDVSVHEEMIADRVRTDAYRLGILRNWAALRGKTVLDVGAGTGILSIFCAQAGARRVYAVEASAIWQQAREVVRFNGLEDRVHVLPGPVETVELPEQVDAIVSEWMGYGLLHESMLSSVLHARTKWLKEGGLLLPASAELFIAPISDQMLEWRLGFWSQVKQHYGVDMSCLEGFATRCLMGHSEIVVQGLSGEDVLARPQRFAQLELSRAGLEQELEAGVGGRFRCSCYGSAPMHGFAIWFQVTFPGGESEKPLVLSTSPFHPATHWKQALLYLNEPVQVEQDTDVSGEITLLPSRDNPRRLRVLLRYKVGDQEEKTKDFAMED
Details: not given
As for the experimental part:
as §3, §4
With `Nc1ncnc2c1ncn2[C@@H]1O[C@H](CSCCCNCc2cccc(-c3cccc(F)c3)c2)[C@@H](O)[C@H]1O` [Compound 10q], the inhibition at 10 µM turned out to be 36%.

As to `Nc1ncnc2c1ncn2[C@@H]1O[C@H](CSCCNCc2cccc(-c3ccc(Cl)cc3)c2)[C@@H](O)[C@H]1O` [Compound 10a], the inhibition at 10 µM amounted to 57%.

Regarding `Nc1ncnc2c1ncn2[C@@H]1O[C@H](CSCCOc2ccc(-c3ccccc3O)cc2)[C@@H](O)[C@H]1O` [Compound 14g], the inhibition at 10 µM worked out at 10%.

Turning to `Nc1ncnc2c1ncn2[C@@H]1O[C@H](CSCCOc2ccc(-c3ccc(O)cc3)cc2)[C@@H](O)[C@H]1O` [Compound 14b], the inhibition at 10 µM turned out to be 20%.

With `Nc1ncnc2c1ncn2[C@@H]1O[C@H](CSCCCNC(=O)NCc2ccc3c(c2)OCO3)[C@@H](O)[C@H]1O` [Compound 7o], the inhibition at 10 µM came out at 89%.

As to `Nc1ncnc2c1ncn2[C@@H]1O[C@H](CSCCNC(=O)NCc2ccc3cnccc3c2)[C@@H](O)[C@H]1O` [Compound 7e], the inhibition at 10 µM was determined as 9%.

Regarding `Nc1ncnc2c1ncn2[C@@H]1O[C@H](CSCCOc2ccc(-c3ccoc3)cc2)[C@@H](O)[C@H]1O` [Compound 14c], the inhibition at 10 µM was 3%.

For `N=C(NCCSC[C@H]1O[C@@H](n2cnc3c(N)ncnc32)[C@H](O)[C@@H]1O)Nc1ccccc1` [Compound 5b], the inhibition at 10 µM came to 75%.

Turning to `Nc1ncnc2c1ncn2[C@@H]1O[C@H](CSCCNCc2cccc(Br)c2)[C@@H](O)[C@H]1O` [Compound 9a], the inhibition at 10 µM was 58%.

A further experiment has as its target PRMT8 (Homo sapiens, UniProt Q9NR22). Put plainly: radioactive assay (Reaction Biology Corp.), inhibition of PRMT8. Type of experiment: biochemical.
Details: not given
As for the experimental part:
as §3, §4
Take `Nc1ncnc2c1ncn2[C@@H]1O[C@H](CSCCCNCc2cccc(-c3cccc(F)c3)c2)[C@@H](O)[C@H]1O` [Compound 10q]: the inhibition at 10 µM amounted to 66%.

Take `Nc1ncnc2c1ncn2[C@@H]1O[C@H](CSCCNCc2cccc(-c3ccc(Cl)cc3)c2)[C@@H](O)[C@H]1O` [Compound 10a]: the inhibition at 10 µM turned out to be 71%.

As to `Nc1ncnc2c1ncn2[C@@H]1O[C@H](CSCCOc2ccc(-c3ccccc3O)cc2)[C@@H](O)[C@H]1O` [Compound 14g], the inhibition at 10 µM worked out at 39%.

With `Nc1ncnc2c1ncn2[C@@H]1O[C@H](CSCCOc2ccc(-c3ccc(O)cc3)cc2)[C@@H](O)[C@H]1O` [Compound 14b], the inhibition at 10 µM was 20%.

Consider `Nc1ncnc2c1ncn2[C@@H]1O[C@H](CSCCCNC(=O)NCc2ccc3c(c2)OCO3)[C@@H](O)[C@H]1O` [Compound 7o], for which the inhibition at 10 µM turned out to be 7%.

`Nc1ncnc2c1ncn2[C@@H]1O[C@H](CSCCNC(=O)NCc2ccc3cnccc3c2)[C@@H](O)[C@H]1O` [Compound 7e]: the inhibition at 10 µM was -2%.

Consider `Nc1ncnc2c1ncn2[C@@H]1O[C@H](CSCCOc2ccc(-c3ccoc3)cc2)[C@@H](O)[C@H]1O` [Compound 14c], for which the inhibition at 10 µM is 39%.

For the compound `N=C(NCCSC[C@H]1O[C@@H](n2cnc3c(N)ncnc32)[C@H](O)[C@@H]1O)Nc1ccccc1` [Compound 5b], the inhibition at 10 µM is 66%.

As for `Nc1ncnc2c1ncn2[C@@H]1O[C@H](CSCCNCc2cccc(Br)c2)[C@@H](O)[C@H]1O` [Compound 9a], the inhibition at 10 µM was 47%.

Another experiment concerns the target PRMT3 (Homo sapiens, UniProt O60678). Put plainly: SAHH-coupled fluorescence assay, inhibition of PRMT3. Type of experiment: biochemical. Set-up: PRMT3 (residues 211-531) was cloned into the pET28a-MHL expression vector; tag of the pET28a-MHL vector (not described); made in house; host or cells: Escherichia coli BL21(DE3).
Details: not given
The method, then:
as §1
The PRMT3 methylation assay was performed under the following conditions in a final well volume of 100 μL: 20 mM Tris (pH=7.5), 0.01% Triton X-100, 5 μM SAHH, 0.25 μM PRMT3, 30 μM AdoMet, and 15 μM ThioGlo4. […] Fluorescence was monitored on a BMG CLARIOstar microplate reader with excitation 380 nm and emission 505 nm. Data were processed by using GraphPad Prism software 8.0. All experiments were performed in duplicate.
as §3
The PRMT3 methylation assay was performed under the following conditions in a final well volume of 100 μL: 20 mM Tris (pH=7.5), 0.01% Triton X-100, 5 μM SAHH, 0.25 μM PRMT3, 30 μM AdoMet, and 15 μM ThioGlo4. […] Fluorescence was monitored on a BMG CLARIOstar microplate reader with excitation 380 nm and emission 505 nm. Data were processed by using GraphPad Prism software 8.0.
`Nc1ncnc2c1ncn2[C@@H]1O[C@H](CSCCCNCc2cccc(-c3cccc(F)c3)c2)[C@@H](O)[C@H]1O` [Compound 10q]: the inhibition at 10 µM stood at 25%.

On to `Nc1ncnc2c1ncn2[C@@H]1O[C@H](CSCCNCc2cccc(-c3ccc(Cl)cc3)c2)[C@@H](O)[C@H]1O` [Compound 10a], for which the inhibition at 10 µM came out at 16%.

For the compound `Nc1ncnc2c1ncn2[C@@H]1O[C@H](CSCCOc2ccc(-c3ccccc3O)cc2)[C@@H](O)[C@H]1O` [Compound 14g], the inhibition at 10 µM stood at 5%.

As for `Nc1ncnc2c1ncn2[C@@H]1O[C@H](CSCCOc2ccc(-c3ccc(O)cc3)cc2)[C@@H](O)[C@H]1O` [Compound 14b], the inhibition at 10 µM turned out to be 6%.

Regarding `Nc1ncnc2c1ncn2[C@@H]1O[C@H](CSCCCNC(=O)NCc2ccc3c(c2)OCO3)[C@@H](O)[C@H]1O` [Compound 7o], the inhibition at 10 µM came to 5%.

In the case of `Nc1ncnc2c1ncn2[C@@H]1O[C@H](CSCCNC(=O)NCc2ccc3cnccc3c2)[C@@H](O)[C@H]1O` [Compound 7e], the inhibition at 10 µM was determined as 8%.

As for `Nc1ncnc2c1ncn2[C@@H]1O[C@H](CSCCOc2ccc(-c3ccoc3)cc2)[C@@H](O)[C@H]1O` [Compound 14c], the inhibition at 10 µM came to 6%.

Turning to `N=C(NCCSC[C@H]1O[C@@H](n2cnc3c(N)ncnc32)[C@H](O)[C@@H]1O)Nc1ccccc1` [Compound 5b], the inhibition at 10 µM came to 1%.

For `Nc1ncnc2c1ncn2[C@@H]1O[C@H](CSCCNCc2cccc(Br)c2)[C@@H](O)[C@H]1O` [Compound 9a], the inhibition at 10 µM was found to be 8%.

As a reminder, the inhibition is the relative decrease from the control value, in per cent. In general, IC50 refers to the concentration at which inhibition is half-maximal.

For the origin of these results see patent US20260306527A1, “PRMT INHIBITOR COMPOUNDS AND THE USES THEREOF” (Purdue Research Foundation, priority 2023, published 2026).
